The source made the active and inactive calls. The rule behind the calls is not given here.
Key:
[1] = biological target: Sodium-dependent serotonin transporter (Homo sapiens, UniProt P31645); experiment: Inhibition of human SERT
Substance-P receptor = Substance-P receptor (Homo sapiens, UniProt P25103); experiment: Antagonist activity at human NK1 receptor
[2] = Drug uptake in gerbil brain at 30 mg/kg, po; assay type: ADME, organism-based; set-up: dose 30 mg/kg, route oral; settings: gerbillinae, in vivo, read-out: Drug uptake
[3] = Plasma concentration in gerbil at 30 mg/kg, po; assay type: ADME, organism-based; set-up: dose 30 mg/kg, route oral; settings: gerbillinae, in vivo
Gerbillinae [4] = experiment: Neurotoxicity in gerbil assessed as increase in spontaneous locomotor activity at 30 mg/kg, po relative to vehicle-treated control; assay type: toxicity, organism-based; set-up: dose 30 mg/kg, route oral; settings: in vivo
Gerbillinae [5] = experiment: Antidepressant activity in gerbil assessed as reduction of immobility time at 30 mg/kg, po administered 30 mins prior to testing measured over 6 mins by forced swimming test relative to vehicle-treated control; assay type: functional, organism-based; set-up: dose 30 mg/kg
Gerbillinae [6] = experiment: Antidepressant activity in gerbil assessed as reduction of immobility time at 3 to 10 mg/kg, po administered 30 mins prior to testing measured over 6 mins by forced swimming test relative to vehicle-treated control; assay type: functional, organism-based

Sequence of Sodium-dependent serotonin transporter (P31645 whole entry): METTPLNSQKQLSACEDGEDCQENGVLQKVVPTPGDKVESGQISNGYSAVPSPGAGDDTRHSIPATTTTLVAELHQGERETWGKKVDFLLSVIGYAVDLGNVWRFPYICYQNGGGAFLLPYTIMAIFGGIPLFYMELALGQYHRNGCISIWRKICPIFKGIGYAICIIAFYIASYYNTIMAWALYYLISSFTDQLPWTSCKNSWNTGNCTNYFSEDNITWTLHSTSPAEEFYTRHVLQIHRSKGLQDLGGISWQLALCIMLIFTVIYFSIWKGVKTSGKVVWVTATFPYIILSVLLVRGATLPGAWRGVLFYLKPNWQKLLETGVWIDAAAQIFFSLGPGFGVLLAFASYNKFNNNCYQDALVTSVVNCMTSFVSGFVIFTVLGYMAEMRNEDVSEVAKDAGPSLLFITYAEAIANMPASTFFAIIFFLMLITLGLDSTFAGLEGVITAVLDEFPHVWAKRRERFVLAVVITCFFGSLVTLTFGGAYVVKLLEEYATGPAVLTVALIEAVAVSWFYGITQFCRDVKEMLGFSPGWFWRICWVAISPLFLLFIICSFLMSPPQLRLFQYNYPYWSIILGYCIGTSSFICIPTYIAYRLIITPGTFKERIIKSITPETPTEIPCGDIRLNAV
Sequence of Substance-P receptor (P25103 whole entry): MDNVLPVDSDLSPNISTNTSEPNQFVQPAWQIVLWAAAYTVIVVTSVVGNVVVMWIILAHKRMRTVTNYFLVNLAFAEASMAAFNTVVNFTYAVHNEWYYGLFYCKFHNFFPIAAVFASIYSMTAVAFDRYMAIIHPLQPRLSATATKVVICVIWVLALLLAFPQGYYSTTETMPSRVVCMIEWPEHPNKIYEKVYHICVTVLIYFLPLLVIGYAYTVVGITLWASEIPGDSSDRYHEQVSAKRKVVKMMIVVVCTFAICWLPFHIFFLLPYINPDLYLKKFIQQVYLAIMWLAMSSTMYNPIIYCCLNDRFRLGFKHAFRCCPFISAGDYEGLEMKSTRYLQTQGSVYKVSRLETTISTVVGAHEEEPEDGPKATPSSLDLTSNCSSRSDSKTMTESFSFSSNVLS

| Structure (SMILES) | IC50 [1] [nM] | IC50 (Substance-P receptor) [nM] | other results |
| --- | --- | --- | --- |
| FC(F)(F)c1cc(COCC2(c3ccccc3)CCC(N3CCCCC3)CC2)cc(C(F)(F)F)c1 (mixture of isomers) | 970 | 93 | – |
| FC(F)(F)c1cc(COCC2(c3ccccc3)CCC(N3CCOCC3)C2)cc(C(F)(F)F)c1 (mixture of isomers) | > 1000 | 45 | – |
| FC(F)(F)c1cc(COCC2(c3ccccc3)CCC(N3CCCC3)CC2)cc(C(F)(F)F)c1 (mixture of isomers) | > 1000 | 120 | – |
| COCCN(C)C1CCC(COCc2cc(C(F)(F)F)cc(C(F)(F)F)c2)(c2ccccc2)C1 (mixture of isomers) | > 1000 | 20 | – |
| CC(C)N(C(C)C)C1CCC(COCc2cc(C(F)(F)F)cc(C(F)(F)F)c2)(c2ccccc2)C1 (mixture of isomers) | > 1000 | 470 | – |
| FC(F)(F)c1cc(COCC2(c3ccccc3)CCC(N3CCOCC3)CC2)cc(C(F)(F)F)c1 (mixture of isomers) | > 1000 | 350 | – |
| FC(F)(F)c1cc(COCC2(c3ccccc3)CCC(N3CCCC3)C2)cc(C(F)(F)F)c1 (mixture of isomers) | > 1000 | 14 | – |
| FC(F)(F)c1cc(COCC2(c3ccccc3)CCC(N3CCCCC3)C2)cc(C(F)(F)F)c1 (mixture of isomers) | > 1000 | 4.7 | – |
| FC(F)(F)c1cc(COCC2(c3ccccc3)CCC(NC3CC3)CC2)cc(C(F)(F)F)c1 (mixture of isomers) | 680 | 74 | – |

Stronger by IC50 [1], values ahead:

| IC50 [1] [nM] | IC50 (Substance-P receptor) [nM] | Structure (SMILES) | other results |
| --- | --- | --- | --- |
| 250 | 48 | CN(C)C1CCC(COCc2cc(C(F)(F)F)cc(C(F)(F)F)c2)(c2ccccc2)CC1 (mixture of isomers) | – |
| 4.7 | 7.5 | N[C@H]1CC[C@@](COCc2cc(C(F)(F)F)cc(C(F)(F)F)c2)(c2ccccc2)C1 | concentration [2]: 7.4 µM; concentration [3]: 0.3 µM; Activity (Gerbillinae [4]): Non-toxic; Activity (Gerbillinae [5]): Active; Activity (Gerbillinae [6]): inactive |
| 190 | 16 | CNC1CCC(COCc2cc(C(F)(F)F)cc(C(F)(F)F)c2)(c2ccccc2)CC1 (mixture of isomers) | – |
| 350 | 19 | N[C@H]1CC[C@](COCc2cc(C(F)(F)F)cc(C(F)(F)F)c2)(c2ccccc2)C1 | – |
| 210 | 31 | N[C@@H]1CC[C@](COCc2cc(C(F)(F)F)cc(C(F)(F)F)c2)(c2ccccc2)C1 | – |
| 280 | 38 | CCN(CC)C1CCC(COCc2cc(C(F)(F)F)cc(C(F)(F)F)c2)(c2ccccc2)CC1 (mixture of isomers) | – |
| 130 | 11 | N[C@@H]1CC[C@@](COCc2cc(C(F)(F)F)cc(C(F)(F)F)c2)(c2ccccc2)C1 | – |
| 530 | 16 | FC(F)(F)c1cc(COCC2(c3ccccc3)CCC(NC3CC3)C2)cc(C(F)(F)F)c1 (mixture of isomers) | – |
| 57 | 8 | CN(C)C1CCC(COCc2cc(C(F)(F)F)cc(C(F)(F)F)c2)(c2ccccc2)C1 (mixture of isomers) | – |
| 150 | 14 | CCNC1CCC(COCc2cc(C(F)(F)F)cc(C(F)(F)F)c2)(c2ccccc2)CC1 (mixture of isomers) | – |
| 520 | 120 | CN1CCN(C2CCC(COCc3cc(C(F)(F)F)cc(C(F)(F)F)c3)(c3ccccc3)CC2)CC1 (mixture of isomers) | – |

From ChEMBL document CHEMBL3124804, “Discovery of a cyclopentylamine as an orally active dual NK1 receptor antagonist-serotonin reuptake transporter inhibitor” (Bioorg Med Chem Lett, 2014)
